Laboratory results taken from publication PMC5834492, “Antimycobacterial drug discovery using Mycobacteria-infected amoebae identifies anti-infectives and new molecular targets” (Scientific Reports, 2018).
pIC50: −log10 of the molar value.

Tests used:
[1] = test system: D. discoideum GFP-ABD; conditions: 10 µM
[2] = test system: M. marinum in A. castellanii; type: cell-based, Mycobacterium marinum; conditions: 10 µM
[3] = test system: M. marinum luxCDABE; type: cell-based, Mycobacterium marinum; conditions: 10 µM
[4] = test system: Mtb H37Rv in THP-1; parameters: method as in Sorrentino et al, 2015; conditions: ref Sorrentino et al, 2015, cited from earlier work; for Intracelullar MIC90 in THP-1: THP1 / Mtb H37Rv infection assay; for Extracellular MIC90/ Inracellular MIC90: ratio
[5] = test system: M. marinum in BV2 microglial cells; type: cell-based, Mycobacterium marinum; conditions: for BV2 / M. marinum normalised growth, control=1.00, mean: 10 µM
[6] = test system: M. marinum GFP; type: cell-based, Mycobacterium marinum; conditions: 10 µM; antibiotic assay
[7] = test system: Mtb H37Rv; parameters: method as in Sorrentino et al, 2015; conditions: ref Sorrentino et al, 2015; cited from earlier work

O=C(c1cc2c(s1)CCC2)N1CCN(Cc2ccc3c(c2)OCO3)CC1 [GSK1731114A]
D. discoideum GFP-ABD normalised growth, control=1.00, mean [1]: 0.44 | A. castellanii / M. marinum normalised growth, control=1.00, mean [2]: 0.92 | M. marinum luxCDABE normalised growth, control=1.00, mean [3]: 0.085 | Intracelullar MIC90 in THP-1 [4]: 5.55 µM | Extracellular MIC90/ Inracellular MIC90 [4]: 0.95 | pIC50 [5]: 5.03 | BV2 / M. marinum normalised growth, control=1.00, mean [5]: 0.81 | M. marinum GFP normalised growth, control=1.00, mean [6]: 0.30 | Extracellular MIC90 [7]: 5.3 µM

O=C(C=Cc1cccs1)N1CCN(Cc2ccc(Br)s2)CC1 [GSK1744926A]
D. discoideum GFP-ABD normalised growth, control=1.00, mean [1]: 0.50 | A. castellanii / M. marinum normalised growth, control=1.00, mean [2]: 0.74 | M. marinum luxCDABE normalised growth, control=1.00, mean [3]: 0.00 | Intracelullar MIC90 in THP-1 [4]: 1.85 µM | Extracellular MIC90/ Inracellular MIC90 [4]: 1.03 | pIC50 [5]: 5.38 | BV2 / M. marinum normalised growth, control=1.00, mean [5]: 0.70 | M. marinum GFP normalised growth, control=1.00, mean [6]: 0.13 | Extracellular MIC90 [7]: 1.9 µM

CN1CCN(c2ccc(C(F)(F)F)cc2NC(=O)c2ccccn2)CC1 [GSK1750922A]
D. discoideum GFP-ABD normalised growth, control=1.00, mean [1]: 0.29 | A. castellanii / M. marinum normalised growth, control=1.00, mean [2]: 0.93 | M. marinum luxCDABE normalised growth, control=1.00, mean [3]: 1.00 | Intracelullar MIC90 in THP-1 [4]: 50 µM | Extracellular MIC90/ Inracellular MIC90 [4]: 0.04 | pIC50 [5]: 5.29 | BV2 / M. marinum normalised growth, control=1.00, mean [5]: 0.94 | M. marinum GFP normalised growth, control=1.00, mean [6]: 0.91 | Extracellular MIC90 [7]: 1.9 µM

CCOc1ccc(-c2nc(CNCCc3ccc(F)cc3)cs2)cc1.O=C(O)C(=O)O [GSK1759150A]
D. discoideum GFP-ABD normalised growth, control=1.00, mean [1]: 0.30 | A. castellanii / M. marinum normalised growth, control=1.00, mean [2]: 0.82 | M. marinum luxCDABE normalised growth, control=1.00, mean [3]: 0.37 | Intracelullar MIC90 in THP-1 [4]: 16.65 µM | Extracellular MIC90/ Inracellular MIC90 [4]: 0.07 | pIC50 [5]: 5.37 | BV2 / M. marinum normalised growth, control=1.00, mean [5]: 0.73 | M. marinum GFP normalised growth, control=1.00, mean [6]: 0.75 | Extracellular MIC90 [7]: 1.1 µM

Cl.O=C(c1ccco1)N(CCCn1ccnc1)c1nc2c(Cl)cccc2s1 [GSK1788487A]
D. discoideum GFP-ABD normalised growth, control=1.00, mean [1]: 0.32 | A. castellanii / M. marinum normalised growth, control=1.00, mean [2]: 1.34 | M. marinum luxCDABE normalised growth, control=1.00, mean [3]: 0.09 | Intracelullar MIC90 in THP-1 [4]: 50 µM | Extracellular MIC90/ Inracellular MIC90 [4]: 0.17 | pIC50 [5]: 5.30 | BV2 / M. marinum normalised growth, control=1.00, mean [5]: 0.94 | M. marinum GFP normalised growth, control=1.00, mean [6]: 0.66 | Extracellular MIC90 [7]: 8.4 µM

Cn1ccnc1CNCCS(=O)(=O)c1cccc(Nc2ccc(-c3cccc(F)c3)cn2)c1 [GSK1826247A]
D. discoideum GFP-ABD normalised growth, control=1.00, mean [1]: 0.90 | A. castellanii / M. marinum normalised growth, control=1.00, mean [2]: 1.14 | M. marinum luxCDABE normalised growth, control=1.00, mean [3]: 0.00 | Intracelullar MIC90 in THP-1 [4]: 0.61 µM | Extracellular MIC90/ Inracellular MIC90 [4]: 7.7 | pIC50 [5]: 5.11 | BV2 / M. marinum normalised growth, control=1.00, mean [5]: 0.98 | M. marinum GFP normalised growth, control=1.00, mean [6]: 0.98 | Extracellular MIC90 [7]: 4.7 µM
